Earlier results in US20090318526A1, “Use of cannabinoid receptor agonists as hypothermia inducing drugs for the treatment of ischemia” (priority 2006, published 2009).

Tested on: Sprague-Dawley rats
Details: Leker et al. [37]

For `CCCCCCC(C)(C)c1cc(O)c2c(c1)OC(C)(C)[C@@H]1CC=C(CO)C[C@@H]21` [HU-210, (−)-11-OH-delta-8-tetrahydrocannabinoldimethylheptyl], the induction of hypothermia (Sprague-Dawley rats) is listed as “did provide hypothermia”, the “protection against ischemic damages” value (Sprague-Dawley rats) is listed as “protection against ischemic damages” and the “side effects due to the treatment” value (rats) is listed as “hemodynamic and behavioural side effects”.
